From patent US8809280B2, “Therapeutic peptides” (Lytix Biopharma AS, priority 2009, dated 2014)
In brackets after ≈: the same amount, converted by molar mass. Read-outs that look alike come from different tables or passages of the source.

Legend:
Assay type in all cases: cell-based
[1] = tested on: Escherichia coli (ATTC 25922); experiment: microbe, parasite or virus in culture; conditions: for MIC E. coli: Example 1, di TFA salts, highest concentration tested 200 μg/ml
Experimental: (§1) The antimicrobial testing was conducted by TosLab A/S (Tromsø, Norway). Each compound was diluted to 1 mg/ml in water and tested in duplicates at 200, 100, 50, 35, 15, 10, 5, 2.5, 1, 0.5 μg/ml except 4n which was tested at 50, 35, 15, 10, 5, 2.5, 1, 0.5 μg/ml due to solubility problems. All tested compounds were di TFA salts.
(§2) The bacterial strains were grown in 2% Bacto Peptone water until exponential growth was achieved. […] A bacterial concentration of 2×10^6 cfu/ml was used. Both negative control (no peptide) and positive control (Gentamicin) was used for all bacterial strains. Growth or no growth was judged by the turbidity of the wells.
Escherichia coli (ATTC 25922)
(§3) Antimicrobial assays: 200 μg/ml
(§4) Suitable methodologies are described in Example 1.
(§5) Each compound was tested in duplicates at 200, 100, 50, 35, 15, 10, 5, 2.5, 1, 0.5 μg/ml. All tested compounds were di-trifluoroacetic acid salts.

[2] = tested on: Staphylococcus aureus (ATTC 25923); experiment: microbe, parasite or virus in culture
Experimental: as §1, §2
Staphylococcus aureus (ATTC 25923)
as §3, §4, §5

[3] = tested on: methicillin resistant Staphylococcus epidermidis (ATCC 27626); experiment: microbe, parasite or virus in culture
Experimental: as §1, §2
Methicillin resistant Staphylococcus epidermidis (ATCC 27626)
as §3, §4, §5

[4] = tested on: methicillin resistant Staphylococcus aureus (ATCC 33591); experiment: microbe, parasite or virus in culture
Experimental: as §1, §2
Methicillin resistant Staphylococcus aureus (ATCC 33591)
as §3, §4, §5

human red blood cells = experiment: cells; conditions: for EC50 RBC: highest concentration tested 1000 μg/ml
Experimental: The hemolytic testing against human erythrocytes was conducted by Lytix Biopharma A/S (Tromso, Norway). Each compound was tested from a concentration of 1 mg/ml and lower, except 4k and 4n which was only tested up to 0.5 mg/ml due to solubility problems. 8 mL of blood was collected from adult healthy male donors. The blood was divided equally and distributed in a commercial available EDTA containing test tube (BD vacutainer, 7.2 mg K2 EDTA) and in a 10 mL reaction vial containing 40 μL of a heparin solution (1000 U/mL in 0.9% sodium chloride). After 30 minutes the hematocrit of the EDTA treated blood was determined. The heparinized blood was centrifuged for 10 minutes at 1500 rpm and the supernatant removed. Subsequently the RBCs were washed with prewarmed PBS three times, and diluted to 10% hematocrit. The compounds dissolved in PBS (concentration 1 μg/mL to 1000 µg/mL) and the erythrocytes were incubated under agitation at 37° C. for one hour. A positive control with an end concentration of 0.1% TRITON X-100 (nonionic surfactant) and a negative control containing pure PBS buffer were included. The samples were centrifuged (4000 rpm) for 5 minutes and the absorption of the supernatant was measured at 405 nm. The values given in Table 1A correspond to 50% hemolysis.
The plasma fraction of heparinized human blood was first removed by centrifugation and three additional washing steps with 37° C. pre-warmed phosphate buffered saline (PBS). Subsequently, the human RBC were diluted to 10% hematocrit and the β^2,2-amino acid derivatives were dissolved in PBS providing concentrations ranging from 1-1000 μg/mL. The diluted RBC were added to the compound solutions to a final erythrocyte concentration of 1% v/v. PBS and TRITON X-100 (non-ionic surfactant), in a final concentration of 0.1% v/v, were included as negative and positive control. After 1 hour agitated incubation at 37° C. the samples were centrifuged at 4000 rpm for 5 min. Release of hemoglobin was determined by measuring the absorbance of the supernatant at 405 nm. Hemolytic activity was calculated as the ratio of treated sample with β^2,2-amino acid derivative and tenside treated sample according to the formula: […]

[5] = Escherichia coli, Example 2, values separated by / are repeat tests, read-out: Antimicrobial potency (MIC) E. coli
[6] = Staphylococcus aureus, Example 2, values separated by / are repeat tests, read-out: Antimicrobial potency (MIC) S. aureus
[7] = Staphylococcus epidermidis, ATCC 27626 / MRSE, Example 2, values separated by / are repeat tests, read-out: Antimicrobial potency (MIC) MRSE
[8] = Staphylococcus aureus, ATCC 33591 / MRSA, Example 2, values separated by / are repeat tests, read-out: Antimicrobial potency (MIC) MRSA
[9] = ATTC 25922, read-out: MIC E. coli
[10] = Example 1, 50% hemolysis of human red blood cells
[11] = ATTC 25923, read-out: MIC S. aureus
[12] = ATCC 33591, read-out: MIC MTRSA

| MIC [1, 5] [mg/L] | MIC [2, 6] [mg/L] | MIC [3, 7] [mg/L] | MIC [4, 8] [mg/L] | MIC [1, 9] [µM] | MIC [2, 11] [µM] | MIC ([3]; ATCC 27626, read-out: MIC MRSE) [µM] | MIC [4, 12] [µM] | MIC MRSA ([4]; ATCC 33591) [µM] | Structure (SMILES) | MBC E. coli ([1]; ATTC 25922) [µM] | MIC E. coli ([1]; ATTC 25922) | EC50 RBC (human red blood cells; [10]) | MBC S. aureus ([2]; ATTC 25923) [µM] | MBC MRSE ([3]; ATCC 27626) [µM] | MBC MRSA ([4]; ATCC 33591) [µM] | also measured |
| --- | --- | --- | --- | --- | --- | --- | --- | --- | --- | --- | --- | --- | --- | --- | --- | --- |
|  |  |  |  | 289 | 289 | 72 | 72 |  | CN(C)CCN1CCN(C(=O)C(CN)(CCCc2ccccc2)CCCc2ccccc2)CC1 [Compound 4a] | >360 | — (The notation “—”denotes no detectable activity (MIC or EC50) within the concentration range tested.) | — (The notation “—”denotes no detectable activity (MIC or EC50) within the concentration range tested.) | >360 | >360 | >360 | EC50 RBC (human red blood cells; Example 4, hemolytic activity, human red blood cells): — (The notation “—” denotes no detectable activity (MIC or EC50) within the concentration range tested.); MIC S. aureus ([2]; Example 1, ATTC 25923, di TFA salts, highest concentration tested 200 μg/ml): — (The notation “—”denotes no detectable activity (MIC or EC50) within the concentration range tested.); MIC MRSE ([3]; Example 1, ATCC 27626, di TFA salts, highest concentration tested 200 μg/ml): — (The notation “—”denotes no detectable activity (MIC or EC50) within the concentration range tested.); MIC MRSA ([4]; Example 1, ATCC 33591, di TFA salts, highest concentration tested 200 μg/ml): — (The notation “—”denotes no detectable activity (MIC or EC50) within the concentration range tested.) |
|  |  |  |  | 129 |  |  | 6.5 | 150 (≈ 81.7 µg/mL) | CN(C)CCN1CCN(C(=O)C(CN)(Cc2ccc(C(F)(F)F)cc2)Cc2ccc(C(F)(F)F)cc2)CC1 [Compound 4b] | >301 | — (The notation “—”denotes no detectable activity (MIC or EC50) within the concentration range tested.) | — (The notation “—”denotes no detectable activity (MIC or EC50) within the concentration range tested.) | 301 (≈ 164 µg/mL) | 75 (≈ 40.8 µg/mL) | 150 (≈ 81.7 µg/mL) | Therapeutic index E. coli ([1]; ATTC 25922): 8.6; EC50 (human red blood cells; red cells of human): 1120 µM; Therapeutic index S. aureus ([2]; ATTC 25923): 25; Therapeutic index MRSE ([3]; ATCC 27626): 17; Therapeutic index MRSA ([4]; ATCC 33591): 172 |
|  |  |  |  |  | 147 | 74 |  | 147 (≈ 66.5 µg/mL) | N=C(N)NCCC[C@H](NC(=O)C(CN)(CCc1ccccc1)CCc1ccccc1)C(N)=O [Compound 4e] | >294 | — (The notation “—”denotes no detectable activity (MIC or EC50) within the concentration range tested.) | — (The notation “—”denotes no detectable activity (MIC or EC50) within the concentration range tested.) | 147 (≈ 66.5 µg/mL) | 74 (≈ 33.5 µg/mL) | 147 (≈ 66.5 µg/mL) |  |

The remaining lines, values behind:

| Structure (SMILES) | MIC [1, 5] [mg/L] | MIC [2, 6] [mg/L] | MIC [3, 7] [mg/L] | MIC [4, 8] [mg/L] | MIC [1, 9] [µM] | MIC [2, 11] [µM] | MIC ([3]; ATCC 27626, read-out: MIC MRSE) [µM] | MIC [4, 12] [µM] | MIC MRSA ([4]; ATCC 33591) [µM] | MBC E. coli ([1]; ATTC 25922) [µM] | MIC E. coli ([1]; ATTC 25922) | EC50 RBC (human red blood cells; [10]) | MBC S. aureus ([2]; ATTC 25923) [µM] | MBC MRSE ([3]; ATCC 27626) [µM] | MBC MRSA ([4]; ATCC 33591) [µM] | also measured |
| --- | --- | --- | --- | --- | --- | --- | --- | --- | --- | --- | --- | --- | --- | --- | --- | --- |
| CCCC(CN)(CCC)C(=O)NCCN [Compound 1, N-(2-aminoethyl)-2-(aminomethyl)-2-propyl-pentanamide] | > 200 | > 200 | > 200 | > 200 |  |  |  |  |  |  |  |  |  |  |  |  |
| Cc1cc(C)cc(CC(CN)(Cc2cc(C)cc(C)c2)C(=O)N2CCN(CCN(C)C)CC2)c1 [Compound 35, 3-amino-1-(4-(2-(dimethylamino)ethyl)piperazin-1-yl)-2,2-bis(3,5-dimethylbenzyl)propan-1-one] | 100 | 50 | 35 | 50 |  |  |  |  |  |  |  |  |  |  |  |  |
